In patent US20240293351A1, “METHODS OF ADMINISTERING SYNTHETIC TRITERPENOIDS” (REATA PHARMACEUTICALS HOLDINGS, LLC, priority 2020, published 2024):
Where “and” joins values, the source holds several entries; their conditions need not be identical. Equal entries are not always repeated. Where two headings read alike, the source gives them in different places.

Columns and labels:
[1] = Pharmacokinetic study 402-C-1102 in patients with type 2 diabetes and stage 3b/4 CKD (24-h urine); type: in vivo, human; conditions: 20 mg once daily 56 days
[2] = BEACON 24-hour ABPM / 24-hr urine collection sub-study; type: in vivo, human
Excerpt: A subset of the BEACON patients consented to additional 24-hour assessments including ambulatory blood pressure monitoring (ABPM) and 24-hour urine collections. An independent Events Adjudication Committee (EAC), blinded to study treatment assignment, evaluated whether renal events, cardiovascular events, and neurological events met the pre-specified definitions of the primary and secondary endpoints. An IDMC, consisting of external clinical experts supported by an independent statistical group, reviewed unblinded safety data throughout the study and made recommendations as appropriate.
A subset of patients consented to additional 24-hr assessments (sub-study) of ambulatory blood pressure monitoring (ABPM) and 24-hr urine collection at selected visits. […] Also of note, reductions in serum magnesium were not associated with renal loss of magnesium.

[3] = Thorough QT Study in healthy volunteers; type: in vivo, human; conditions: 6 days
Method: Intensive blood pressure monitoring was employed in a separate Thorough QT Study, which was conducted in healthy volunteers.

clinical = conditions: human, in vivo, po
[4] = BEACON post-hoc review of EAC case packets for heart failure events within first four weeks; type: in vivo, human
Method: The first scheduled post-baseline assessment in BEACON was at Week 4. Since many of the heart failure events occurred prior to Week 4, the clinical database provides limited information to characterize these patients. Post-hoc review of the EAC case packets for heart failure cases that occurred prior to Week 4 was performed to assess clinical, vitals, laboratory, and imaging data collected at the time of the first heart failure event (Tables 13 and 14).
Baseline central laboratory values from the clinical database were compared to local laboratory values obtained on admission for heart failure that were included in the EAC packets.

[5] = human, in vivo, po
[6] = ITT N = 1088, adjudicated primary endpoints
[7] = post-hoc ITT, Observed N, randomized 1088
[8] = post-hoc, Age ≤ 75, randomized 786
[9] = post-hoc, BL ACR ≤ 300, eGFR > 20, BNP ≤ 200, randomized 209
[10] = post-hoc, BL ACR ≤ 1000, eGFR > 20, Age ≤ 75, randomized 368
[11] = post-hoc, BL ACR ≤ 1000, randomized 798
[12] = post-hoc, BL BNP ≤ 200, randomized 559
[13] = post-hoc, BL eGFR > 20, randomized 735
[14] = post-hoc, No h/o HF, randomized 922

SMILES: COC(=O)[C@]12CCC(C)(C)C[C@H]1[C@H]1C(=O)C=C3[C@@]4(C)C=C(C#N)C(=O)C(C)(C)[C@@H]4CC[C@@]3(C)[C@]1(C)CC2 [Bardoxolone methyl, methyl-2-cyano-3,12-dioxooleana-1,9-dien-28-oic acid]
- 24-h Urinary Sodium, WK 8 Δ from baseline, mean ([1]; CKD Stage 3b, N = 9): −12 mmol/24 h
- 24-h Urine Volume, WK 8 Δ from baseline, mean ([1]; CKD Stage 3b, N = 9): 355 mL
- 24-h Urinary Sodium, WK 8 Δ from baseline, mean ([1]; CKD Stage 4, N = 6): −89 mmol/24 h
- 24-h Urine Volume, WK 8 Δ from baseline, mean ([1]; CKD Stage 4, N = 6): -610 mL
- Urinary Magnesium, WK4 Δ from baseline, mean ([2]; n = 40): −0.9 mmol/24 h
- Urinary Magnesium, WK4, mean ([2]; n = 43): 6.0 mmol/24 h
- Urinary Potassium, WK4 Δ from baseline, mean ([2]; n = 57): −7 mmol/24 h
- Urinary Sodium, WK4 Δ from baseline, mean ([2]; n = 57): −27 mmol/24 h
- Urinary Potassium, WK4, mean ([2]; n = 61): 52 mmol/24 h
- Urinary Sodium, WK4, mean ([2]; n = 61): 140 mmol/24 h
- 24-hour Urine Volume, WK4 Δ from baseline, mean ([2]; n = 63): -247 mL
- 24-hour Urine Volume, WK4, mean ([2]; n = 64): 1792 mL
- Serum Magnesium, WK4, mean ([2]; n = 77): 1.53 mEq/L
- Serum Magnesium, WK4 Δ from baseline, mean ([2]; n = 77): −0.21 mEq/L
- Serum Potassium, WK4 Δ from baseline, mean ([2]; n = 77): 0.10 mmol/L
- Serum Sodium, WK4, mean ([2]; n = 77): 140.3 mmol/L
- Serum Sodium, WK4 Δ from baseline, mean ([2]; n = 77): 0.2 mmol/L
- Serum Potassium, WK4, mean ([2]; n = 77, 20 mg once daily): 4.8 mmol/L
- Change in blood pressure ([3]; 20 mg or 80 mg once daily): did not differ from changes observed in placebo-treated patients
- QTcF, placebo-corrected changes (ΔΔQTcF) ([3]; 20 or 80 mg): did not increase QTcF
- Occurrence of Death (BEACON, ITT, BARD 20 mg (N = 1088), deaths at database lock): 4.0%
- Occurrence of ESRD (BEACON, ITT, BARD 20 mg (N = 1088), events through last date of contact): 4.0%
- Patient's first event: CV death, patients [6]: 26 n
- Patient's first event: Chronic dialysis, patients [6]: 40 n
- Patient's first event: End stage renal disease (ESRD), patients [6]: 43 n
- Patient's first event: Renal death, patients [6]: 2 n
- Patient's first event: Renal transplant, patients [6]: 1 n
- Composite primary efficacy outcome (ESRD or CV death), patients (ITT N = 1088, adjudicated, on or before study termination): 69 n
- SAE Infections and infestations, patients (ITT, All Patients N = 1088): 79
- SAE Infections and infestations, patients (ITT, BL ACR ≤ 300, eGFR > 20, BNP ≤ 200, N = 209): 9
- SAE Infections and infestations, patients (ITT, BL ACR ≤ 1000, eGFR > 20, Age ≤ 75, N = 368): 20
- Treatment-emergent SAE: Infections and infestations, patients (Safety Population N = 1092, 20 mg once daily): 79 n
- Fatal heart failure events (final analysis): three
- Hy's Law cases (human, in vivo): no Hy's Law cases were observed
- Increase in BNP from baseline, Mean±SD (human, in vivo): 225 ± 598 pg/mL
- K^+ Retention (human, in vivo): None
- Mean WK 24 ΔeGFR (human, in vivo): 6.1 and 5.5 and 7.6
- Mean increase in diastolic blood pressure (human, in vivo): 1.4 mmHg
- Mean increase in systolic blood pressure (human, in vivo): 1.9 mmHg
- N of patients with WK 24 BNP change 25% to 100% Increase (human, in vivo): 45
- N of patients with WK 24 BNP change <25% Increase (human, in vivo): 84
- N of patients with WK 24 BNP change ≥100% Increase (human, in vivo): 82
- QTc prolongation (human, in vivo): not associated with QTc prolongation
- SAE Endocrine disorders, patients (human, in vivo): 1
- QTcF interval, change from baseline, 25th quartile (human, in vivo, 24 weeks): -13 ms
- QTcF interval, change from baseline, 75th quartile (human, in vivo, 24 weeks): 10 ms
- QTcF interval, change from baseline, Mean (SD) (human, in vivo, 24 weeks): −0.9 (19.2) msec
- QTcF interval, change from baseline, Range (min, max) (human, in vivo, 24 weeks): −88, 69
- QTcF interval, change from baseline, median (human, in vivo, 24 weeks): -1 ms
- QTcF interval, observed, 25th quartile (human, in vivo, 24 weeks): 407 ms
- QTcF interval, observed, 75th quartile (human, in vivo, 24 weeks): 443 ms
- QTcF interval, observed, Mean (SD) (human, in vivo, 24 weeks): 425.8 (26.5) msec
- QTcF interval, observed, median (human, in vivo, 24 weeks): 425 ms
- All-Cause Death, patients [7]: 44
- ESRD, patients with event [7]: 47
- All-Cause Death, patients [8]: 20
- ESRD, patients with event [8]: 38
- All-Cause Death, patients [9]: 5
- ESRD, patients with event [9]: 1
- All-Cause Death, patients [10]: 11
- ESRD, patients with event [10]: 9
- All-Cause Death, patients [11]: 32
- ESRD, patients with event [11]: 21
- All-Cause Death, patients [12]: 14
- ESRD, patients with event [12]: 12
- All-Cause Death, patients [13]: 27
- ESRD, patients with event [13]: 18
- All-Cause Death, patients [14]: 35
- ESRD, patients with event [14]: 35
- Deaths confirmed as cardiovascular, patients (prior to clinical database lock (Mar. 4, 2013)): 29
- half-life (clinical): 48 to 60 h
- LVEF at HF hospitalization, mean ([4]; n = 23): 52% ±
- Serum Sodium at HF hospitalization, mean ([4]; n = 30): 139.0 mmol/L
- Serum Sodium Δ (HF vs baseline), mean ([4]; n = 30): -1.0 mmol/L
- Heart Rate at HF hospitalization, mean ([4]; n = 32): 81 bpm
- Heart Rate Δ (HF vs baseline), mean ([4]; n = 32): 14.5 bpm
- SBP at HF hospitalization, mean ([4]; n = 33): 154 mmHg
- SBP Δ (HF vs baseline), mean ([4]; n = 33): 10.5 mmHg
- DBP at HF hospitalization, mean ([4]; n = 34): 75 mmHg
- DBP Δ (HF vs baseline), mean ([4]; n = 34): 7.9 mmHg
- Serum Potassium at HF hospitalization, mean ([4]; n = 34): 4.8 mmol/L
- Serum Potassium Δ (HF vs baseline), mean ([4]; n = 34): 0.1 mmol/L
- Serum Creatinine at HF hospitalization, mean ([4]; n = 38): 2.7 mg/dL
- Serum Creatinine Δ (HF vs baseline), mean ([4]; n = 38): -0.1 mg/dL
- Dose dependence of systemic exposure [5]: increased linearly with increasing dose from 20 to 60 mg
- Food effect on total systemic exposure [5]: no appreciable food effect
- Increase in peak plasma levels (Cmax) with food [5]: approximately 71%
- Time of peak plasma concentrations after dose administration [5]: 1 to 6 h
